Results published in ChEMBL document CHEMBL5154907, “Discovery and Anti-Inflammatory Activity Evaluation of a Novel CDK8 Inhibitor through Upregulation of IL-10 for the Treatment of Inflammatory Bowel Disease In Vivo” (J Med Chem, 2022).
pIC50: −log10 of the molar value.

Tests used:
[1] = target: CDK8/Cyclin C (Homo sapiens) (UniProt P49336+P24863); assay: Inhibition of recombinant full length His tagged human CDK8/Cyclin C expressed in Baculovirus at 200 nM incubated for 60 mins in presence of ATP by ADP-Glo kinase assay
BMDC = assay: Anti-inflammatory activity against R848-stimulated mouse BMDC cells assessed as upregulation of IL-10 production at 5 uM treated for 24 hrs followed by R848 stimulation for 12 hrs by ELISA method (reference value: 100 %); assay type: functional; conditions: time 36 hrs
[2] = Transcriptional activity of AP-1 in R848-stimulated mouse BMDC cells transfected with pAP1-luc assessed as ratio of AP-1 activity at 5 uM treated for 24 hrs followed by R848 stimulation for 4 hrs by luminescence based microplate reader analysis relative to control; assay type: functional; conditions: time 28 hrs
CDK8/Cyclin C = CDK8/Cyclin C (Homo sapiens, UniProt P49336); assay: Inhibition of recombinant full length His tagged human CDK8/Cyclin C expressed in Baculovirus incubated for 60 mins in presence of ATP by ADP-Glo kinase assay
Sequence of CDK8/Cyclin C (P49336 whole entry): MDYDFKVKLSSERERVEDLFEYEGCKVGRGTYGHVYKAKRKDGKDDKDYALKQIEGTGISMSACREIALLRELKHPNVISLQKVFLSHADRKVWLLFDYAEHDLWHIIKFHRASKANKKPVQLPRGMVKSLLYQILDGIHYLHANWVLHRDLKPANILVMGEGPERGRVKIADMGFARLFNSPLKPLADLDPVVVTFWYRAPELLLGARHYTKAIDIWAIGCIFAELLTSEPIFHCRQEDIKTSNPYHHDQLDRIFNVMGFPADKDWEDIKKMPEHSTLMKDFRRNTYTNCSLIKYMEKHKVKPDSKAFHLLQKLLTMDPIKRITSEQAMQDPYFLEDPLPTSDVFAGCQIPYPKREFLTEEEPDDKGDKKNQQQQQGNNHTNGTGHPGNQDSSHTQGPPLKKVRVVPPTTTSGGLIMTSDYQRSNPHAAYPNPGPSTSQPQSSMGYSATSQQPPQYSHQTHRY
Sequence of CDK8/Cyclin C (P24863 whole entry, further chain): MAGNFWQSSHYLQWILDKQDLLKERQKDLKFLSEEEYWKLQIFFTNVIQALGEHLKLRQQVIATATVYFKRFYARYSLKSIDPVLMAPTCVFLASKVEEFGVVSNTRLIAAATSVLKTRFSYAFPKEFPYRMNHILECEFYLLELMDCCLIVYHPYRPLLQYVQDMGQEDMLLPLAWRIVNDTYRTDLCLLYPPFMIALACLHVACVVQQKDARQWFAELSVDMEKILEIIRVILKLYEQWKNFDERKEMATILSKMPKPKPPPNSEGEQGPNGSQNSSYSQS

Row | SMILES | inhibition [1] | pIC50 (CDK8/Cyclin C) | Activity (BMDC) | Ratio [2]
1 | O=C(Nc1cccc(Cl)c1)c1cncc(-c2ccc(C(=O)N3CCNCC3)cc2)c1 | 47% |  | 39% | 
2 | O=C(Nc1ccccc1F)c1cncc(-c2ccc(C(=O)N3CCNCC3)cc2)c1 | 55% |  | 62% | 
3 | CC(=O)Nc1cccc(NC(=O)c2cc(O)cc(-c3ccc(C(=O)N4CCNCC4)cc3)c2)c1 |  |  | 12% | 
4 | CC(=O)Nc1ccccc1NC(=O)c1cncc(-c2ccc(C(=O)N3CCNCC3)cc2)c1 | 47% |  | 29% | 
5 | CC(C)(C)c1ccc(NC(=O)c2cncc(-c3ccc(C(=O)N4CCNCC4)cc3)c2)cc1 | 54% |  | 63% | 
6 | COc1ccc(NC(=O)c2cc(O)cc(-c3ccc(C(=O)N4CCNCC4)cc3)c2)cc1 | 61% |  | 56% | 
7 | O=C(NCc1ccoc1)c1cncc(-c2ccc(C(=O)N3CCNCC3)cc2)c1 | 61% |  | 60% | 
8 | O=C(Nc1cccc(OC(F)(F)F)c1)c1cncc(-c2ccc(C(=O)N3CCNCC3)cc2)c1 | 44% |  | 48% | 
9 | O=C(Nc1cccc(F)c1)c1cncc(-c2ccc(C(=O)N3CCNCC3)cc2)c1 | 42% |  | 53% | 
10 | O=C(Nc1ccc(C(F)(F)F)cc1)c1cncc(-c2ccc(C(=O)N3CCNCC3)cc2)c1 | 23% |  | 19% | 
11 | O=C(Nc1cccc(F)c1)c1cc(O)cc(-c2ccc(C(=O)N3CCNCC3)cc2)c1 | 20% |  | 26% | 
12 | CC(=O)Nc1cccc(NC(=O)c2cncc(-c3ccc(C(=O)N4CCNCC4)cc3)c2)c1 | 65% | 6.87 | 78% | 
13 | O=C(Nc1ccc(F)cc1)c1cncc(-c2ccc(C(=O)N3CCNCC3)cc2)c1 | 60% |  | 75% | 
14 | Cc1cc(C)c(NC(=O)c2cc(O)cc(-c3ccc(C(=O)N4CCNCC4)cc3)c2)c(C)c1 | 38% |  | 59% | 
15 | CC(C)c1ccc(NC(=O)c2cc(O)cc(-c3ccc(C(=O)N4CCNCC4)cc3)c2)cc1 | 28% |  | 53% | 
16 | CC(C)c1ccccc1NC(=O)c1cncc(-c2ccc(C(=O)N3CCNCC3)cc2)c1 | 58% |  | 78% | 
17 | CC1CCc2nc(N)c(C#N)c(-c3cccnc3)c2C1 (stereo not given) |  | 6.68 | 66% | 2.5
18 | CC(=O)Nc1ccc(NC(=O)c2cc(O)cc(-c3ccc(C(=O)N4CCNCC4)cc3)c2)cc1 | 45% |  | 30% | 
19 | O=C(Nc1ccc(OC(F)(F)F)cc1)c1cc(O)cc(-c2ccc(C(=O)N3CCNCC3)cc2)c1 | 5% |  | 88% | 
20 | O=C(NC1CCCCC1)c1cncc(-c2ccc(C(=O)N3CCNCC3)cc2)c1 | 53% |  | 59% | 
21 | O=C(Nc1ccc(C(F)(F)F)cc1)c1cc(O)cc(-c2ccc(C(=O)N3CCNCC3)cc2)c1 | 40% |  | 8% | 

Row | SMILES | inhibition [1] | pIC50 (CDK8/Cyclin C) | Activity (BMDC) | Ratio [2]
22 | CC(C)c1cccc(NC(=O)c2cncc(-c3ccc(C(=O)N4CCNCC4)cc3)c2)c1 | 64% |  |  | 
23 | Cc1cccc(NC(=O)c2cc(O)cc(-c3ccc(C(=O)N4CCNCC4)cc3)c2)c1 | 20% |  | 76% | 
24 | Nc1ccc(NC(=O)c2cc(O)cc(-c3ccc(C(=O)N4CCNCC4)cc3)c2)cc1 | 31% |  | 20% | 
25 | Cc1ccc(NC(=O)c2cncc(-c3ccc(C(=O)N4CCNCC4)cc3)c2)cc1 | 77% |  | 62% | 
26 | O=C(Nc1ccc(OC(F)(F)F)cc1)c1cncc(-c2ccc(C(=O)N3CCNCC3)cc2)c1 | 55% |  | 62% | 
27 | CCc1ccc(NC(=O)c2cc(O)cc(-c3ccc(C(=O)N4CCNCC4)cc3)c2)cc1 | 48% |  | 72% | 
28 | O=C(Nc1ccc(F)cc1)c1cc(O)cc(-c2ccc(C(=O)N3CCNCC3)cc2)c1 | 12% |  | 42% | 
29 | O=C(NCCc1ccccc1)c1cncc(-c2ccc(C(=O)N3CCNCC3)cc2)c1 | 52% |  | 62% | 
30 | Cc1ccc(NC(=O)c2cc(O)cc(-c3ccc(C(=O)N4CCNCC4)cc3)c2)cc1 | 21% |  | 34% | 
31 | O=C(NCc1ccccc1)c1cncc(-c2ccc(C(=O)N3CCNCC3)cc2)c1 | 62% |  | 72% | 
32 | O=C(Nc1cccc(OC(F)(F)F)c1)c1cc(O)cc(-c2ccc(C(=O)N3CCNCC3)cc2)c1 |  |  | 10% | 
33 | CC(C)c1ccc(NC(=O)c2cncc(-c3ccc(C(=O)N4CCNCC4)cc3)c2)cc1 | 62% |  | 61% | 
34 | Nc1cccc(NC(=O)c2cncc(-c3ccc(C(=O)N4CCNCC4)cc3)c2)c1 | 59% |  | 60% | 
35 | COc1cccc(NC(=O)c2cc(O)cc(-c3ccc(C(=O)N4CCNCC4)cc3)c2)c1 | 36% |  | 17% | 
36 | O=C(Nc1cccc(C(F)(F)F)c1)c1cc(O)cc(-c2ccc(C(=O)N3CCNCC3)cc2)c1 | 15% |  | 19% | 
37 | COc1ccccc1NC(=O)c1cncc(-c2ccc(C(=O)N3CCNCC3)cc2)c1 | 60% |  | 62% | 
38 | Nc1cccc(NC(=O)c2cc(O)cc(-c3ccc(C(=O)N4CCNCC4)cc3)c2)c1 | 39% |  | 53% | 
39 | CC(C)c1cccc(NC(=O)c2cc(O)cc(-c3ccc(C(=O)N4CCNCC4)cc3)c2)c1 | 29% |  | 62% | 
40 | CN1CCN(C(=O)c2ccc(-c3cc(O)c4c(=O)cc(-c5ccccc5)oc4c3)cc2)CC1 |  |  | 19% | 
41 | CC(C)(C)c1ccc(NC(=O)c2cc(O)cc(-c3ccc(C(=O)N4CCNCC4)cc3)c2)cc1 | 35% |  | 72% | 

Second part, led by results:

Row | inhibition [1] | pIC50 (CDK8/Cyclin C) | SMILES | Activity (BMDC) | Ratio [2]
42 | 19% |  | O=C(c1ccc(-c2cc(O)c3c(=O)cc(-c4ccccc4)oc3c2)cc1)N1CCSCC1 | 46% | 
43 | 54% | 6.68 | O=C(Nc1ccccc1)c1cc(-c2ccc(C(=O)N3CCNCC3)cc2)ccc1O | 40% | 1.2
44 | 28% | 5.68 | O=c1cc(-c2ccccc2)oc2cc(-c3ccc(C(F)(F)F)cc3)cc(O)c12 |  | 1.4
45 | 54% |  | CC(=O)Nc1ccc(-c2cc(O)c3c(=O)cc(-c4ccccc4)oc3c2)cc1 | 49% | 
46 | 6% |  | O=c1cc(-c2ccccc2)oc2cc(-c3ccsc3)cc(O)c12 |  | 
47 | 29% |  | CCCN1CCN(C(=O)c2ccc(-c3cc(O)c4c(=O)cc(-c5ccccc5)oc4c3)cc2)CC1 | 53% | 
48 | 19% |  | O=C(Nc1ccccc1F)c1cc(O)cc(-c2ccc(C(=O)N3CCNCC3)cc2)c1 | 42% | 
49 | 25% |  | CN1CCN(Cc2ccc(-c3cc(O)c4c(=O)cc(-c5ccccc5)oc4c3)cc2)CC1 | 36% | 1.1
50 | 11% |  | Cn1cc(-c2cc(O)c3c(=O)cc(-c4ccccc4)oc3c2)cn1 | 57% | 
51 | 42% |  | CN1CCN(c2ccc(-c3cc(O)c4c(=O)cc(-c5ccccc5)oc4c3)cc2)CC1 | 53% | 1.4
52 | 62% | 6.75 | CN(C)c1ccc(-c2cc(O)c3c(=O)cc(-c4ccccc4)oc3c2)cc1 |  | 1.4
53 | 35% | 6.26 | O=c1cc(-c2ccccc2)oc2cc(-c3cncnc3)cc(O)c12 |  | 
54 | 53% |  | CC(C)c1ccccc1NC(=O)c1cc(O)cc(-c2ccc(C(=O)N3CCNCC3)cc2)c1 | 23% | 
55 | 48% |  | O=c1cc(-c2ccccc2)oc2cc(-c3ccc(OC(F)(F)F)cc3)cc(O)c12 | 44% | 
56 | 43% |  | O=c1cc(-c2ccccc2)oc2cc(-c3ccc(CN4CCOCC4)cc3)cc(O)c12 | 53% | 
57 | 29% |  | CCN1CCN(c2ccc(-c3cc(O)c4c(=O)cc(-c5ccccc5)oc4c3)cc2)CC1 | 40% | 
58 | 12% |  | Cc1noc(C)c1-c1cc(O)c2c(=O)cc(-c3ccccc3)oc2c1 | 30% | 
59 | 56% | 6.69 | COc1cc(OC)c(-c2cc(O)c3c(=O)cc(-c4ccccc4)oc3c2)c(OC)c1 |  | 
60 | 47% |  | CN(C)Cc1ccc(-c2cc(O)c3c(=O)cc(-c4ccccc4)oc3c2)cc1 | 82% | 
61 | 27% |  | COc1cc(-c2cc(O)c3c(=O)cc(-c4ccccc4)oc3c2)cc(OC)c1OC | 78% | 
62 | 43% |  | CN(C)C(=O)c1ccc(-c2cc(O)c3c(=O)cc(-c4ccccc4)oc3c2)cc1 | 76% | 
63 | 31% |  | O=c1cc(-c2ccccc2)oc2cc(-c3ccc(Cl)cc3)cc(O)c12 |  | 
64 | 29% |  | O=c1cc(-c2ccccc2)oc2cc(-c3ccoc3)cc(O)c12 | 48% | 
65 | 24% |  | O=c1cc(-c2ccccc2)oc2cc(-c3ccncc3)cc(O)c12 | 73% | 1.2
66 | 47% |  | COc1ccc(-c2cc(O)c3c(=O)cc(-c4ccccc4)oc3c2)cc1 | 76% | 
67 | 57% |  | CCN1CCN(C(=O)c2ccc(-c3cc(O)c4c(=O)cc(-c5ccccc5)oc4c3)cc2)CC1 | 23% | 
68 | 6% |  | O=C(c1ccc(-c2cc(O)c3c(=O)cc(-c4ccccc4)oc3c2)cc1)N1CCOCC1 | 25% | 
69 | 19% |  | O=c1cc(-c2ccccc2)oc2cc(-c3ccc(N4CCOCC4)cc3)cc(O)c12 | 23% | 
70 | 31% |  | CCc1ccc(-c2cc(O)c3c(=O)cc(-c4ccccc4)oc3c2)cc1 |  | 
71 | 67% | 6.79 | O=C(Nc1ccccc1)c1cccc(-c2ccc(C(=O)N3CCNCC3)cc2)c1 |  | 1.7
